According to patent publication US20220403327A1, “CUSTOMIZABLE 3D CELL CULTURE SYSTEM COMPRISING HYDROGEL-EMBEDDED CELLS AND USES THEREOF” (POLYVALOR, LIMITED PARTNERSHIP, priority 2019, published 2022):

What was measured:
Assay type in all cases: cell-based
fibroblasts = experiment: Drug screening test: stromal cells on nanofibrous PLA scaffolds of the 3D cell culture model; details: 0-2 μM; day 7; relative to samples from previous experiment without drug
Description: A drug screening setup was designed using the known anti-tumor drug Doxorubicin to assess tumor migration performance on the 3D cell culture model of the present disclosure. The plasma-treated PLA electrospun mats seeded with fibroblasts and tumor cells on […] hydrogel on top, were loaded with various concentrations of Doxorubicin (0, 0.05, 0.1, 0.5, 1 and 2 μM) in triplicate, and tumor migration assessment was performed at day 7 of cell culture. […] The experiment was done in triplicate and the error bars presented in the chart are based on standard deviation.

[1] = test system: bone metastases prostate (BMP4) patient-derived tumor cells; experiment: Drug screening test: tumor migration on PP-EL plasma-coated PLA electrospun mats with patient-derived tumor cells; details: 0, 0.05, 0.1 and 0.5 μM, day 7 of cell culture, A1G7 hydrogel, triplicate
Description: FIG. 12C is a graph showing the measurement of the number of BMP4 tumor cells migrated to the surface of PP-EL plasma-treated PLA mats at different concentrations (0, 0.05, 0.1, or 0.5 μM) of Doxorubicin. Experiments were performed in triplicate and the error bars in the graph show the standard deviation.
The 3D cell culture system according to the present disclosure was also used to perform a doxorubicin screening tested with tumor cells derived from patients (bone metastases prostate (BMP4) patient-derived tumor cells) and a breast tumor cell line (MBA-MB231) in A1G7 hydrogel. In this experiment, the PLA scaffolds were coated with PP-EL, ethyl lactate (EL) plasma coating in atmospheric pressure, and captured at day 7 after culture. The results depicted in FIG. 12A indicate a significant difference in the appearance of primary BMP4 tumor cells and commercial tumor cell line in the images. The pictures show the 3D stack of the total mat layers (certain thickness) obtained by signal from cells.
The PP-EL plasma-coated PLA electrospun mats seeded with BMP4 tumor cells on A1G7 hydrogel on top, were loaded with various concentrations of Doxorubicin (0, 0.05, 0.1 and 0.5 μM) in triplicate, and tumor migration assessment was performed at day 7 of cell culture.

breast cancer cells = experiment: Drug screening test: tumor migration on plasma-treated PLA electrospun mat 3D cell culture model; details: 0, 0.05, 0.1, 0.5, 1 and 2 μM in media; day 7 of cell culture; A1G7 hydrogel on fibroblast-seeded PLA mats; triplicate
Description: FIG. 11B is a graph showing the measurement of the number of tumor cells migrated to the surface of PLA mats at different concentrations (0, 0.05, 0.1, 0.5, 1 or 2 μM) of Doxorubicin. Experiments were performed in triplicate and the error bars in the graph show the standard deviation.
A drug screening setup was designed using the known anti-tumor drug Doxorubicin to assess tumor migration performance on the 3D cell culture model of the present disclosure. The plasma-treated PLA electrospun mats seeded with fibroblasts and tumor cells on A1G7 hydrogel on top, were loaded with various concentrations of Doxorubicin (0, 0.05, 0.1, 0.5, 1 and 2 μM) in triplicate, and tumor migration assessment was performed at day 7 of cell culture. […] The experiment was done in triplicate and the error bars presented in the chart are based on standard deviation.

Q: Which results are given for COc1cccc2c1C(=O)c1c(O)c3c(c(O)c1C2=O)C[C@@](O)(C(=O)CO)C[C@@H]3O[C@H]1C[C@H](N)[C@H](O)[C@H](C)O1 [Doxorubicin]?
A: number of stromal cells (fibroblasts) on nanofibrous scaffolds (fibroblasts): reduced number of stromal cells; BMP4 tumor cells migration [1]: dose-dependent inhibition; number of breast cancer cells that were able to migrate to the surface of scaffolds (breast cancer cells): significant reduction
